According to patent US9242996B2 (Novartis AG, priority 2013, dated 2016):

Tests used:
activated ERK2 [1] = target: T1, activated ERK2 (Homo sapiens (Human), UniProt P28482); experiment: Activated ERK2 kinase assay, ERK2 New conditions (AlphaScreen, ERKtide phosphorylation); format: biochemical; conditions: 0.25 nM ERK2, 200 nM ERKtide peptide, 35 μM ATP, 30 min preincubation
Method in brief: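 Read-out is AlphaScreen with anti-phospho-EGFR (Thr669) antibody after EDTA quench and overnight dark incubation. Reaction: 0.25 nM ERK2, 30 min compound preincubation, then 200 nM ERKtide plus 35 µM ATP for 2–3 h at ambient temperature, pH 7.5. IC50 by four-parameter fit.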

activated ERK2 [2] = target: T1, activated ERK2; experiment: Activated ERK2 (20 pM) Kinase Assay (AlphaScreen, ERKtide phosphorylation); format: biochemical; conditions: 0.02 nM ERK2, 400 nM ERKtide peptide, 35 μM ATP, 30 min preincubation
Method in brief: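 AlphaScreen read-out (anti-phospho-EGFR Thr669 antibody, protein A acceptor/streptavidin donor beads) of ERKtide (400 nM) phosphorylation by 20 pM activated ERK2 at 35 μM ATP.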

T1 sequence (P28482 whole entry): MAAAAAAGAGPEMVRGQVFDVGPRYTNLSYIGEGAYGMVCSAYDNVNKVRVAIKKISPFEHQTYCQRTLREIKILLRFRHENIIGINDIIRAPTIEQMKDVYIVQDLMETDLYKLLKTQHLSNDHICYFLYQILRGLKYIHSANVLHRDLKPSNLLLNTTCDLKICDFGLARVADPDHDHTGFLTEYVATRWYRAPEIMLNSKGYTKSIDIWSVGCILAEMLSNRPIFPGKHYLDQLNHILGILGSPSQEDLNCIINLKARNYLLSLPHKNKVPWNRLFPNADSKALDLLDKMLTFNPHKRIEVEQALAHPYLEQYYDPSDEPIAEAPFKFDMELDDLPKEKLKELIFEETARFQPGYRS

SMILES	IC50 (activated ERK2 [1])	IC50 (activated ERK2 [2])
C[C@@H](NC(=O)c1ccc(-c2cc([C@H]3CCC(=O)N(C)C3)cnc2N)cc1F)c1cccc(Cl)c1 [Example 39, 4-(2-amino-5-((R)-1-methyl-6-oxopiperidin-3-yl)pyridin-3-yl)-N—((R)-1-(3-chlorophenyl)ethyl)-2-fluorobenzamide]	2.48 nM	1.3 nM
C[C@@H](NC(=O)c1ccc(-c2cc([C@@H]3CCC(=O)N(C)C3)cnc2N)cc1F)c1cccc(Cl)c1 [Example 40, 4-(2-amino-5-((S)-1-methyl-6-oxopiperidin-3-yl)pyridin-3-yl)-N—((R)-1-(3-chlorophenyl)ethyl)-2-fluorobenzamide]	2.46 nM	1.26 nM
C[C@@H](NC(=O)c1ccc(-c2cc(-c3cnnn3C)cnc2N)cc1F)c1cccc(Cl)c1 [Example 303, (R)-4-(2-amino-5-(1-methyl-1H-1,2,3-triazol-5-yl)pyridin-3-yl)-N-(1-(3-chlorophenyl)ethyl)-2-fluorobenzamide]	0.221 nM	–
Cn1cc(-c2cnc(N)c(-c3ccc(C(=O)NC(CN)c4cccc(Cl)c4)c(F)c3)c2)cn1 (stereo not shown) [Example 307, N-(2-amino-1-(3-chlorophenyl)ethyl)-4-(2-amino-5-(1-methyl-1H-pyrazol-4-yl)pyridin-3-yl)-2-fluorobenzamide]	0.2 nM	–
CS(=O)(=O)c1cc(F)cc(CNC(=O)c2ccc(-c3nc(C4CCOCC4)cnc3N)cc2F)c1 [Example 310, 4-(3-amino-6-(tetrahydro-2H-pyran-4-yl)pyrazin-2-yl)-2-fluoro-N-(3-fluoro-5-(methylsulfonyl)benzyl)benzamide]	0.242 nM	–
CCn1cc(-c2cnc(N)c(-c3ccc(C(=O)N[C@H](CO)c4ccccc4)c(F)c3)c2)cn1 [Example 314, (S)-4-(2-amino-5-(1-ethyl-1H-pyrazol-4-yl)pyridin-3-yl)-2-fluoro-N-(2-hydroxy-1-phenylethyl) benzamide]	1.48 nM	–
Nc1ncc(C2CNC(=O)C2)cc1-c1ccc(C(=O)NCc2ccccc2)c(F)c1 (stereo not shown) [Example 316, 4-(2-amino-5-(5-oxopyrrolidin-3-yl)pyridin-3-yl)-N-benzyl-2-fluorobenzamide]	330 nM	–
Cc1ccnc(CNC(=O)c2ccc(-c3cc(C4CCOCC4)cnc3N)cc2F)n1 [Example 317, 4-(2-amino-5-(tetrahydro-2H-pyran-4-yl)pyridin-3-yl)-2-fluoro-N-((4-methylpyrimidin-2-yl)methyl) benzamde]	1340 nM	–
NC(=O)c1ccc(-c2nc(C3CCOCC3)cnc2N)cc1F [Example 319, 4-(3-amino-6-(tetrahydro-2H-pyran-4-yl)pyrazin-2-yl)-2-fluorobenzamide]	151 nM	–
CNC(=O)c1ccc(-c2nc(C3CCOCC3)cnc2N)cc1F [Example 320, 4-(3-amino-6-(tetrahydro-2H-pyran-4-yl)pyrazin-2-yl)-2-fluoro-N-methylbenzamide]	354 nM	–
Nc1ncc(C2CCOCC2)nc1-c1ccc(C(=O)N2CCOC[C@@H]2c2ccccc2)cc1 [Example 322, (S)-(4-(3-amino-6-(tetrahydro-2H-pyran-4-yl)pyrazin-2-yl)phenyl)(3-phenylmorpholino) methanone]	91.2 nM	–
CS(=O)(=O)c1cccc(CNC(=O)c2ccc(-c3nc(C4CCOCC4)cnc3N)cc2)c1 [Example 323, 4-(3-amino-6-(tetrahydro-2H-pyran-4-yl)pyrazin-2-yl)-N-(3-(methylsulfonyl)benzyl)benzamide]	3.29 nM	–
NC[C@@H](NC(=O)c1ccc(-c2nc(C3CCOCC3)cnc2N)cc1F)c1ccccc1 [Example 326, (S)-N-(2-amino-1-phenylethyl)-4-(3-amino-6-(tetrahydro-2H-pyran-4-yl)pyrazin-2-yl)-2-fluorobenzamide]	0.253 nM	–
Nc1ncc(C2CCC3(CC2)OCCO3)nc1-c1ccc(C(=O)NCc2ccccc2)c(F)c1 [Example 413, 4-(3-amino-6-(1,4-dioxaspiro[4.5]decan-8-yl)pyrazin-2-yl)-N-benzyl-2-fluorobenzamide]	204 nM	–
C[C@@H](NC(=O)c1ccc(-c2nc([C@H]3CC[C@@H](O)CC3)cnc2N)cc1F)c1cccc(Cl)c1 [Example 416, 4-(3-amino-6-((1s,4S)-4-hydroxy-cyclohexyl)pyrazin-2-yl)-N-((R)-1-(3-chlorophenyl)ethyl)-2-fluorobenzamide]	5.68 nM	–
C[C@@H](NC(=O)c1ccc(-c2nc([C@H]3CC[C@H](O)CC3)cnc2N)cc1F)c1cc(F)cc(S(C)(=O)=O)c1 [Example 419, 4-(3-amino-6-((1r,4R)-4-hydroxy-cyclohexyl)pyrazin-2-yl)-2-fluoro-N-((R)-1-(3-fluoro-5-(methylsulfonyl)phenyl)ethyl) benzamide]	0.853 nM	–
C[C@@H](NC(=O)c1ccc(-c2nc([C@H]3CC[C@@H](O)CC3)cnc2N)cc1F)c1cc(F)cc(S(C)(=O)=O)c1 [Example 420, 4-(3-amino-6-((1s,4S)-4-hydroxy-cyclohexyl)pyrazin-2-yl)-2-fluoro-N-((R)-1-(3-fluoro-5-(methylsulfonyl)phenyl)ethyl) benzamide]	1.95 nM	–

Second part, the molecule after the results:

IC50 (activated ERK2 [1])	IC50 (activated ERK2 [2])	SMILES
1.35 nM	0.536 nM	C[C@@H](NC(=O)c1ccc(-c2cc(C3CCNC(=O)C3)cnc2N)cc1F)c1cccc(Cl)c1 (mixture of isomers) [Example 120, 4-(2-amino-5-(2-oxopiperidin-4-yl)pyridin-3-yl)-N-((R)-1-(3-chlorophenyl)ethyl)-2-fluorobenzamide]
0.34 nM	0.217 nM	Nc1ncc(C2CCNC(=O)C2)cc1-c1ccc(C(=O)N[C@H](CO)c2cccc(Cl)c2)c(F)c1 (mixture of isomers) [Example 121, 4-(2-amino-5-(2-oxopiperidin-4-yl)pyridin-3-yl)-N-((S)-1-(3-chlorophenyl)-2-hydroxyethyl)-2-fluorobenzamide]
206 nM	197 nM	CS(=O)(=O)[C@H]1CC[C@@H](c2cnc(N)c(-c3ccc(C(=O)NCc4ccccc4)c(F)c3)n2)CC1 [Example 16, 4-(3-amino-6-((1s,4s)-4-(methylsulfonyl)cyclohexyl)pyrazin-2-yl)-N-benzyl-2-fluorobenzamide]
4.1 nM	1.87 nM	CN1CC[C@@H](c2cnc(N)c(-c3ccc(C(=O)N[C@H](CO)c4cccc(Cl)c4)c(F)c3)c2)CC1=O [Example 27, 4-(2-amino-5-((R)-1-methyl-2-oxopiperidin-4-yl)pyridin-3-yl)-N—((S)-1-(3-chlorophenyl)-2-hydroxyethyl)-2-fluorobenzamide]
2.55 nM	1.2 nM	CN1CC[C@H](c2cnc(N)c(-c3ccc(C(=O)N[C@H](CO)c4cccc(Cl)c4)c(F)c3)c2)CC1=O [Example 28, 4-(2-amino-5-((S)-1-methyl-2-oxopiperidin-4-yl)pyridin-3-yl)-N—((S)-1-(3-chlorophenyl)-2-hydroxyethyl)-2-fluorobenzamide]
69.5 nM	22.5 nM	C[C@@H](NC(=O)c1ccc(-c2cc([C@@H]3CCN(C)C(=O)C3)cnc2N)cc1F)c1ccccc1 [Example 30, 4-(2-amino-5-((R)-1-methyl-2-oxopiperidin-4-yl)pyridin-3-yl)-2-fluoro-N—((R)-1-phenylethyl)benzamide]
74 nM	32 nM	C[C@@H](NC(=O)c1ccc(-c2cc([C@H]3CCN(C)C(=O)C3)cnc2N)cc1F)c1ccccc1 [Example 31, 4-(2-amino-5-((S)-1-methyl-2-oxopiperidin-4-yl)pyridin-3-yl)-2-fluoro-N—((R)-1-phenylethyl)benzamide]
3.57 nM	–	CCn1cc(-c2cnc(N)c(-c3ccc(C(=O)N[C@H](C)c4cccc(S(C)(=O)=O)c4)c(F)c3)c2)cn1 [Example 299, (R)-4-(2-amino-5-(1-ethyl-1H-pyrazol-4-yl)pyridin-3-yl)-2-fluoro-N-(1-(3-(methylsulfonyl)phenyl)ethyl) benzamide]
2.5 nM	–	Cn1nncc1-c1cnc(N)c(-c2ccc(C(=O)N[C@H](CO)c3ccccc3)c(F)c2)c1 [Example 304, (S)-4-(2-amino-5-(1-methyl-1H-1,2,3-triazol-5-yl)pyridin-3-yl)-2-fluoro-N-(2-hydroxy-1-phenylethyl) benzamide]
1.91 nM	–	Cn1nncc1-c1cnc(N)c(-c2ccc(C(=O)N[C@H](CO)c3cccc(F)c3)c(F)c2)c1 [Example 305, (S)-4-(2-amino-5-(1-methyl-1H-1,2,3-triazol-5-yl)pyridin-3-yl)-2-fluoro-N-(1-(3-fluorophenyl)-2-hydroxyethyl) benzamide]
0.378 nM	–	Cc1cccc([C@@H](CO)NC(=O)c2ccc(-c3cc(-c4cnnn4C)cnc3N)cc2F)c1 [Example 306, (S)-4-(2-amino-5-(1-methyl-1H-1,2,3-triazol-5-yl)pyridin-3-yl)-2-fluoro-N-(2-hydroxy-1-(m-tolyl)ethyl) benzamide]
0.617 nM	–	CCn1cc(-c2cnc(N)c(-c3ccc(C(=O)N[C@H](C)c4cc(F)cc(S(C)(=O)=O)c4)c(F)c3)c2)cn1 [Example 313, (R)-4-(2-amino-5-(1-ethyl-1H-pyrazol-4-yl)pyridin-3-yl)-2-fluoro-N-(1-(3-fluoro-5-(methylsulfonyl)phenyl)ethyl) benzamide]
54.2 nM	–	Nc1ncc(C2CCOCC2)nc1-c1ccc(C(=O)N[C@H](CF)c2ccccc2)cc1 [Example 327, (S)-4-(3-amino-6-(tetrahydro-2H-pyran-4-yl)pyrazin-2-yl)-N-(2-fluoro-1-phenylethyl) benzamide]
1.68 nM	–	C[C@@H](NC(=O)c1ccc(-c2nc([C@H]3CC[C@H](O)CC3)cnc2N)cc1F)c1cccc(Cl)c1 [Example 415, 4-(3-amino-6-((1r,4R)-4-hydroxy-cyclohexyl)pyrazin-2-yl)-N-((R)-1-(3-chlorophenyl)ethyl)-2-fluorobenzamide]
